Laboratory results reported in paper PMC10341893, “Motifs in Natural Products as Useful Scaffolds to Obtain Novel Benzo[d]imidazole-Based Cannabinoid Type 2 (CB2) Receptor Agonists” (International Journal of Molecular Sciences, 2023).
Read-outs that look alike come from different tables or passages of the source.

Assays:
MCF-7 cells = assay: Neutral red uptake assay, MCF-7; format: cell-based; conditions: Homo sapiens, MCF7, 72 h incubation, triplicate, read-out: IC50 Viability
Experimental: (§1) Compound 6 was tested through a neutral red uptake assay, and cell viability was measured. Neutral red consists of a cationic dye that accumulates in lysosomes. Uptake of neutral red depends on a viable cell’s capacity to maintain acidic pH in the interior of lysosomes.
(§2) MCF-7 and HEK-293 cell lines were maintained at 37 °C in a humidified atmosphere containing 5% CO2. MCF-7 was grown in Roswell Park Memorial Institute (RPMI) 1640 and HEK-293 was grown in Dulbecco’s modified Eagle medium and Ham’s F-12 medium (DMEM/F12). All media was supplemented with 10% fetal bovine serum, penicillin (100 U/mL), streptomycin ([…]), and non-essential amino acids MEM 1×.
(§3) Cells were seeded in 100 μL of media at a density of 10^4 cells/well in 96-well microtiter plates. Solutions of compounds were previously prepared in DMSO, and 1 μL of the corresponding solution was added to each well. The final volume of each well was adjusted to 200 μL. After 72 h of incubation, culture media were removed, and 100 μL of 10 μg/mL neutral red solution prepared in culture media was added to each well and incubated for 2 h at 37 °C in a humidified atmosphere containing 5% CO2. […] The plate was placed for 15 min in a shaker, and fluorescence was measured using Cytation 5 apparatus (Biotek, Winooski, VT, USA) at 530/645 nm excitation/emission wavelengths.

hCB2 receptor [1] = target: T1, hCB2 receptor (Homo sapiens, UniProt P34972); assay: CB2 receptor binding assay ([3H]-CP-55,940 displacement, HEK cell membranes); set-up: expressed in transfected cells; host or cells: HEK cells; conditions: [3H]-CP-55,940 displacement; means ± SD of 3 independent experiments in duplicate; read-out: Ki CB2
Experimental: (§4) To assess the compound selectivity between CB1 and CB2 receptors, binding constants were determined through a radioligand displacement assay by testing concentration–response curves for compounds 5, 6, 16, 19, and 22. As shown in Figure 4 and summarized in Table 4, three of the tested compounds (5, 19, and 22) presented moderate binding affinity in a low micromolar range to both CB1 and CB2 receptors.
(§5) CB1 and CB2 receptor binding assays were performed exactly as previously described. […] Displacement curves were performed by incubating [^3H]-CP-55 940 (90 min, 30 °C) with increasing concentrations of compounds (10 nM−10 μM). Ki values were calculated by applying the Cheng−Prusoff equation to the IC50 values (obtained by GraphPad, Prism Software 9.5) for the displacement of the bound radioligand by compounds.

hCB2 receptor [2] = target: T1, hCB2 receptor; assay: Single-dose radioligand displacement assay ([3H]WIN55212-2); format: binding; set-up: host or cells: CHO cells; conditions: membranes from recombinant CHO cells expressing human CB2, duplicate
Experimental: To assess ligand binding to CB2 receptors, radioligand displacement assay at a single dose (10 μM) was performed in membranes obtained from recombinant CHO cells expressing human CB2 receptors (Eurofins Cerep SA, France). Out of 26 compounds, more than 50% of the molecules presented >50% displacement, while 20% of the compounds (5, 6, 16, 19, 22) presented >80% displacement of radioligand binding at a 10 μM dose. Compounds 5, 6, 16, 19, and 22 were further tested for CB2 receptor activation (agonist activity, see below) and CB2/CB1 selectivity.
All membrane preparations for these studies were generated at Cerep Inc. according to standard protocols. Duplicate determinations were performed for each test compound. Compounds were dissolved in DMSO to generate a stock solution. Radioligand binding methods were adapted from Munro et al..

HEK-293 cells = assay: Neutral red uptake assay, HEK-293; format: cell-based; conditions: Homo sapiens, HEK293
Experimental: as §1, §2, §3

human recombinant CB1R = target: T2, human recombinant CB1R (Homo sapiens, UniProt P21554); assay: CB1 receptor binding assay ([3H]-CP-55,940 displacement, HEK cell membranes); conditions: [3H]-CP-55,940 displacement; means ± SD of 3 independent experiments in duplicate; read-out: Ki CB1
T2 construct: expressed in transfected cells; host or cells: HEK cells
Experimental: as §4, §5

hCB2 receptor [3] = target: T1, hCB2 receptor; assay: cAMP accumulation assay (forskolin-stimulated, CHO cells expressing hCB2); format: cell-based
Experimental: Compounds were further characterized through in vitro functional assays by measuring the variation in forskolin-induced cAMP accumulation (Eurofins Cerep services). The tested compounds diminished the accumulation of cyclic AMP, indicating activity as agonists (Figure 3).
In vitro pharmacology assay for human CB2 agonist effect in CHO cells was performed by Eurofins Cerep (Celle-Lévescault, France). Five compounds were tested at several concentrations for EC50 determination. […] CHO cells stably expressing hCB2 receptor were used to determine agonist effect of compounds, based on the measurement of cAMP level. Assay protocol is adapted from Felder et al..

T1 sequence (P34972 whole entry): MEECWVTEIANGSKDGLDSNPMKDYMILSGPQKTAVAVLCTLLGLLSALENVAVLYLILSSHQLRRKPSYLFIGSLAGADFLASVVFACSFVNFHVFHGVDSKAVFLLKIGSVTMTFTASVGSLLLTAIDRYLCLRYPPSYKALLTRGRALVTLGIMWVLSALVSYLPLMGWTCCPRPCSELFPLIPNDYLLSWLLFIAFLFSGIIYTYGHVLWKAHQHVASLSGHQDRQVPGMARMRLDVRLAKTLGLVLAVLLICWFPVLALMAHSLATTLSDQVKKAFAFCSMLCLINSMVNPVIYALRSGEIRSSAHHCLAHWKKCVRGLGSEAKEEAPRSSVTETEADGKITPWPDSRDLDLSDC
T2 sequence (P21554 whole entry): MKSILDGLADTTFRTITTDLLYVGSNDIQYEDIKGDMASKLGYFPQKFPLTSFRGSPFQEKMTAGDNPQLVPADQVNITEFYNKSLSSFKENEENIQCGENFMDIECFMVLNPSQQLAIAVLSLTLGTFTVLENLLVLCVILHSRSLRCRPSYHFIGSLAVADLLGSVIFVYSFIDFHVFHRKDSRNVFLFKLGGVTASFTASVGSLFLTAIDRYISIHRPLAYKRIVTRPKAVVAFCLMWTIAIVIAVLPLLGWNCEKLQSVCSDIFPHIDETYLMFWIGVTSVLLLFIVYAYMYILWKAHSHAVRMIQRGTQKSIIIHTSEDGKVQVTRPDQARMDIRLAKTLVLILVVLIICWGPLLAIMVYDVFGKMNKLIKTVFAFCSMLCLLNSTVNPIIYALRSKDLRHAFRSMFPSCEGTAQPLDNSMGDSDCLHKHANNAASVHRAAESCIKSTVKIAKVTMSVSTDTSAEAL

IC50 (MCF-7 cells): 38 µM
Ki (hCB2 receptor [1]): 0.44 ± 0.1 µM
Inhibition (%) of [3H]WIN55212-2 specific binding (hCB2 receptor [2]; 10 µM single dose): 89%
inhibition at 10 µM (hCB2 receptor [2]; read-out: Inhibition (%) of [3H]WIN55212-2 specific binding, 10 µM single dose): > 80%
Ki (human recombinant CB1R): > 10 µM
EC50 (hCB2 receptor [3]; recombinant CHO cells expressing hCB2, duplicate, read-out: EC50, inhibition of forskolin-stimulated cAMP accumulation): 0.00336 µM
agonist activity at CB2 (cAMP accumulation) (hCB2 receptor [3]; recombinant cells expressing CB2 receptors): agonist activity was confirmed
Compound: CCn1c(OC2CC(C)CCC2C(C)C)nc2ccccc21 (stereo not drawn) [Compound 6, 1-ethyl-2-((2-isopropyl-5-methylcyclohexyl)oxy)-1H-benzo[d]imidazole]
IC50 (HEK-293 cells; HEK-293, 72 h incubation, triplicate, read-out: IC50 Viability): 30 µM
IC50 (HEK-293 cells; range over HEK-293 and MCF-7 cells, read-out: IC50 of toxicity): 30 to 38 µM
